{
  "source": "patent US20090018162A1",
  "about": "“USE OF 6-(3-CHLORO-2-FLUOROBENZYL)-1-[(2S)-1-HYDROXY-3-METHYLBUTAN-2-YL]-7-METHOXY-4-OXO-1,4-DIHYDROQUINOLINE-3-CARBOXYLIC ACID OR SALT THEREOF FOR TREATING RETROVIRUS INFECTION” (priority 2006, published 2009)",
  "key": {"[1]": {"test_system": "recombinant HIV-1 clones (patient protease/RT sequences in HIV-1 NL4-3)", "assay": "microbe, parasite or virus in culture", "assay_type": "cell-based", "conditions": "one experiment"}, "[2]": {"assay": "MTS cytotoxicity in monocyte/macrophage cultures", "assay_type": "cell-based", "conditions": "human, fresh adherent monocyte/macrophage cultures, HIV-infected, macrophages, MTS, read-out: TC50", "protocol": "Anti-HIV Efficacy Evaluation in Fresh Human Monocyte/Macrophage. Monocytes/macrophages were allowed to adhere to the interior 60 wells of a 96 well flat bottomed plate for 2 to 18 hours at 37° C., 5% CO2. Following 6 to 14 days in culture, the monocyte/macrophage cultures were washed 3 times to remove any non-adherent cells and serially diluted test compounds were added followed by the addition of a pre-titered amount of HIV. Cultures were washed a final time by media removal 24 hours post infection, fresh compound added and the cultures continued for an additional six days. […] At assay termination, virus replication was measured by collecting cell-free supernatant samples which were analyzed for HIV p24 antigen content using a commercially available p24 ELISA assay (Coulter). […] MTS staining for PBMC viability to measure cytotoxicity. […] The mitochondrial enzymes of metabolically active cells metabolize MTS to yield a soluble formazan product. This allows the rapid quantitative analysis of cell viability and compound cytotoxicity. […] At termination of the assay, 20 μL of MTS reagent was added per well. The microtiter plates were then incubated 4-6 hrs at 37° C. The incubation intervals were chosen based on empirically determined times for optimal dye reduction. […] Data analysis."}, "HIV-1 clinical isolates [3]": {"test_system": "HIV-1 clinical isolates"}, "[4]": {"test_system": "HIV-1 macrophage-tropic virus strains"}, "HIV-2 CDC 310319 [5]": {"test_system": "HIV-2 CDC 310319", "conditions": "HIV-2 CDC 310319 in PBMCs"}, "human PBMCs [6]": {"test_system": "human PBMCs", "conditions": "7 days"}, "HIV-1 clinical isolates [7]": {"test_system": "HIV-1 clinical isolates", "assay": "microbe, parasite or virus in culture", "conditions": "Human immunodeficiency virus 1, PBMC"}, "[8]": {"test_system": "HIV-1 macrophage-tropic virus strains", "assay": "microbe, parasite or virus in culture", "conditions": "in Homo sapiens"}, "HIV-2 CDC 310319 [9]": {"test_system": "HIV-2 CDC 310319", "assay": "microbe, parasite or virus in culture", "conditions": "Human immunodeficiency virus 2, PBMC"}, "[10]": {"assay": "MTS staining for PBMC viability (cytotoxicity)", "conditions": "human"}, "human PBMCs [11]": {"test_system": "human PBMCs", "assay": "MTS staining for PBMC viability (cytotoxicity)", "conditions": "read-out: TC50, PBMCs, MTS"}, "[12]": {"test_system": "drug-resistant HIV-1 isolates", "assay": "Anti-HIV efficacy in fresh human PBMCs, drug-resistant HIV-1 isolates", "conditions": "for IC50: Human immunodeficiency virus 1, PBMC, in Homo sapiens"}},
  "note": "Where two headings read alike, the source gives them in different places.",
  "data": [
    {"smiles": "COc1cc2c(cc1Cc1cccc(Cl)c1F)c(=O)c(C(=O)O)cn2[C@H](CO)C(C)C", "note": "[Compound I, 6-(3-chloro-2-fluorobenzyl)-1-[(2S)-1-hydroxy-3-methylbutan-2-yl]-7-methoxy-4-oxo-1,4-dihydroquinoline-3-carboxylic acid]", "values": [
      {"measurement": "EC50", "setting": "[1]; Human immunodeficiency virus 1, NL43, 120 recombinant clones", "value": 1.06, "unit": "nM"},
      {"measurement": "EC50", "setting": "[1]; Human immunodeficiency virus 1, NL43, Reference clone (NL4-3), ten replicates", "value": 1.11, "unit": "nM"},
      {"measurement": "CC50 at 7 days", "setting": "[2]; ADA assay", "value": "> 500", "unit": "nM"},
      {"measurement": "CC50 at 7 days", "setting": "[2]; Ba-L assay", "value": "> 500", "unit": "nM"},
      {"measurement": "CC50 at 7 days", "setting": "[2]; JR-CSF assay", "value": "> 100", "unit": "nM"},
      {"measurement": "TI (TC50/IC50)", "setting": "HIV-1 clinical isolates [3]; HIV-1 96USHIPS7 in PBMCs", "value": ">384.6"},
      {"measurement": "TI (TC50/IC50)", "setting": "HIV-1 clinical isolates [3]; HIV-1 BFC01 in PBMCs", "value": ">85.5"},
      {"measurement": "TI (TC50/IC50)", "setting": "HIV-1 clinical isolates [3]; HIV-1 BR/92/021 in PBMCs", "value": ">131.6"},
      {"measurement": "TI (TC50/IC50)", "setting": "HIV-1 clinical isolates [3]; HIV-1 BR/92/025 in PBMCs", "value": ">1000.0"},
      {"measurement": "TI (TC50/IC50)", "setting": "HIV-1 clinical isolates [3]; HIV-1 BR/93/017 in PBMCs", "value": ">555.6"},
      {"measurement": "TI (TC50/IC50)", "setting": "HIV-1 clinical isolates [3]; HIV-1 BR/93/020 in PBMCs", "value": ">135.1"},
      {"measurement": "TI (TC50/IC50)", "setting": "HIV-1 clinical isolates [3]; HIV-1 BR/93/022 in PBMCs", "value": ">88.5"},
      {"measurement": "TI (TC50/IC50)", "setting": "HIV-1 clinical isolates [3]; HIV-1 CMU 02 in PBMCs", "value": ">79.4"},
      {"measurement": "TI (TC50/IC50)", "setting": "HIV-1 clinical isolates [3]; HIV-1 JV 1083 in PBMCs", "value": ">285.7"},
      {"measurement": "TI (TC50/IC50)", "setting": "HIV-1 clinical isolates [3]; HIV-1 RW/92/016 in PBMCs", "value": ">243.9"},
      {"measurement": "TI (TC50/IC50)", "setting": "HIV-1 clinical isolates [3]; HIV-1 UG/92/046 in PBMCs", "value": ">200.0"},
      {"measurement": "TI (TC50/IC50)", "setting": "[4]; HIV-1 ADA in macrophages", "value": ">7142.9"},
      {"measurement": "TI (TC50/IC50)", "setting": "[4]; HIV-1 Ba-L in macrophages", "value": ">746.3"},
      {"measurement": "TI (TC50/IC50)", "setting": "[4]; HIV-1 JR-CSF in macrophages", "value": ">322.6"},
      {"measurement": "TI (TC50/IC50)", "setting": "HIV-2 CDC 310319 [5]", "value": ">188.7"},
      {"measurement": "CC50", "setting": "human PBMCs [6]", "value": "> 100", "unit": "nM"},
      {"measurement": "IC50", "setting": "HIV-1 clinical isolates [7]; HIV-1 96USHIPS7 (subtype /B, R5) in PBMCs", "value": 0.26, "unit": "nM"},
      {"measurement": "IC50", "setting": "HIV-1 clinical isolates [7]; HIV-1 BR/92/021 (subtype B/B, R5) in PBMCs", "value": 0.76, "unit": "nM"},
      {"measurement": "IC50", "setting": "HIV-1 clinical isolates [7]; HIV-1 BR/93/020 (subtype F/F, R5/X4) in PBMCs", "value": 0.74, "unit": "nM"},
      {"measurement": "IC50", "setting": "HIV-1 clinical isolates [7]; HIV-1 CMU 02 (subtype /EA, X4) in PBMCs", "value": 1.26, "unit": "nM"},
      {"measurement": "IC50", "setting": "HIV-1 clinical isolates [7]; HIV-1 JV 1083 (subtype /G, R5) in PBMCs", "value": 0.35, "unit": "nM"},
      {"measurement": "IC50", "setting": "HIV-1 clinical isolates [7]; HIV-1 RW/92/016 (subtype A/A, R5) in PBMCs", "value": 0.41, "unit": "nM"},
      {"measurement": "IC50", "setting": "HIV-1 clinical isolates [7]; HIV-1 UG/92/046 (subtype D/D, X4) in PBMCs", "value": 0.5, "unit": "nM"},
      {"measurement": "IC50", "setting": "[8]; Human immunodeficiency virus 1, BAL, Macrophage, HIV-1 Ba-L in macrophages", "value": 0.67, "unit": "nM"},
      {"measurement": "IC50", "setting": "[8]; Human immunodeficiency virus 1, Macrophage, HIV-1 ADA in macrophages", "value": 0.07, "unit": "nM"},
      {"measurement": "IC50", "setting": "[8]; Human immunodeficiency virus 1, Macrophage, HIV-1 JR-CSF in macrophages", "value": 0.31, "unit": "nM"},
      {"measurement": "IC50", "setting": "HIV-2 CDC 310319 [9]", "value": 0.53, "unit": "nM"},
      {"measurement": "CC50 at 7 days", "setting": "[10]", "value": "> 100", "unit": "nM"},
      {"measurement": "CC50", "setting": "human PBMCs [11]; 52-52 assay", "value": "> 100", "unit": "nM"},
      {"measurement": "CC50", "setting": "human PBMCs [11]; 96USHIPS7 assay", "value": "> 100", "unit": "nM"},
      {"measurement": "CC50", "setting": "human PBMCs [11]; 144-44 assay", "value": "> 100", "unit": "nM"},
      {"measurement": "CC50", "setting": "human PBMCs [11]; 1002-60 assay", "value": "> 100", "unit": "nM"},
      {"measurement": "CC50", "setting": "human PBMCs [11]; 1064-52 assay", "value": "> 100", "unit": "nM"},
      {"measurement": "CC50", "setting": "human PBMCs [11]; BFC01 assay", "value": "> 100", "unit": "nM"},
      {"measurement": "CC50", "setting": "human PBMCs [11]; BR/92/025 assay", "value": "> 100", "unit": "nM"},
      {"measurement": "CC50", "setting": "human PBMCs [11]; BR/93/017 assay", "value": "> 100", "unit": "nM"},
      {"measurement": "CC50", "setting": "human PBMCs [11]; BR/93/020 assay", "value": "> 100", "unit": "nM"},
      {"measurement": "CC50", "setting": "human PBMCs [11]; BR/93/022 assay", "value": "> 100", "unit": "nM"},
      {"measurement": "CC50", "setting": "human PBMCs [11]; CMU 02 assay", "value": "> 100", "unit": "nM"},
      {"measurement": "CC50", "setting": "human PBMCs [11]; HIV-2 CDC 310319 assay", "value": "> 100", "unit": "nM"},
      {"measurement": "CC50", "setting": "human PBMCs [11]; JV 1083 assay", "value": "> 100", "unit": "nM"},
      {"measurement": "CC50", "setting": "human PBMCs [11]; RW/92/016 assay", "value": "> 100", "unit": "nM"},
      {"measurement": "CC50", "setting": "human PBMCs [11]; UG/92/046 assay", "value": "> 100", "unit": "nM"},
      {"measurement": "TI (TC50/IC50)", "setting": "[12]; HIV-1 52-52 in PBMCs", "value": ">588.2"},
      {"measurement": "TI (TC50/IC50)", "setting": "[12]; HIV-1 144-44 in PBMCs", "value": ">138.89"},
      {"measurement": "TI (TC50/IC50)", "setting": "[12]; HIV-1 1002-60 in PBMCs", "value": ">769.2"},
      {"measurement": "TI (TC50/IC50)", "setting": "[12]; HIV-1 1064-52 in PBMCs", "value": ">158.7"},
      {"measurement": "TI (TC50/IC50)", "setting": "[12]; HIV-1 MDR 769 in PBMCs", "value": ">555.6"},
      {"measurement": "TI (TC50/IC50)", "setting": "[12]; HIV-1 MDR 807 in PBMCs", "value": ">88.5"},
      {"measurement": "TI (TC50/IC50)", "setting": "[12]; HIV-1 MDR 1385 in PBMCs", "value": ">5000.0"},
      {"measurement": "TI (TC50/IC50)", "setting": "[12]; HIV-1 MDR 3761 in PBMCs", "value": ">137.0"},
      {"measurement": "IC50", "setting": "[12]; HIV-1 52-52 (protease-inhibitor resistant) in PBMCs", "value": 0.17, "unit": "nM"},
      {"measurement": "IC50", "setting": "[12]; against several viruses (e.g., MDR 1385, MDR 3761) in PBMCs", "value": "< 1", "unit": "nM"},
      {"measurement": "IC50", "setting": "[12]; multi-drug-resistant HIV-1 MDR 769 in PBMCs", "value": 0.18, "unit": "nM"},
      {"measurement": "IC50", "setting": "[12]; multi-drug-resistant HIV-1 MDR 807 in PBMCs", "value": 1.13, "unit": "nM"},
      {"measurement": "IC50", "setting": "[12]; multi-drug-resistant HIV-1 MDR 1385 in PBMCs", "value": 0.02, "unit": "nM"},
      {"measurement": "IC50", "setting": "[12]; multi-drug-resistant HIV-1 MDR 3761 in PBMCs", "value": 0.73, "unit": "nM"}
    ]}
  ]
}
